According to patent publication US8168672B2, “Thioamide derivatives as progesterone receptor modulators” (Wyeth, priority 2004, dated 2012):
pEC50, pIC50: −log10 of the molar value. “And” between values parts separate entries of the source, which are not always exact repeats. Equal entries are not always repeated.

Columns and labels:
[1] = system: alkaline phosphatase activity in T47D cells; assay: T47D cytosol alkaline phosphatase assay (progestin/agonist mode); format: cell-based; settings: Homo sapiens, 24 hours treatment; for Emax: agonist mode, read-out: % Efficacy; for pEC50: T47D, 24 h, test compounds
Protocol: 5-(4,4-dimethyl-2-thioxo-1,4-dihydro-2H-3,1-benzoxazin-6-yl)-1-methyl-1H-pyrrole-2-carbothioamide (1) and 5-(4,4-dimethyl-2-oxo-1,4-dihydro-2H-3,1-benzoxazin-6-yl)-1-methyl-1H-pyrrole-2-carbothioamide (2) were tested in a T47D cytosol alkaline phosphatase assay (Table 1). The purpose of this functional assay was to identify progestins or antiprogestins by determining the compound's effect on alkaline phosphatase activity in T47D cells.
(i) Culture Medium: • DMEM:F12 (1:1) (GIBCO, BRL) supplemented with 5% (v/v) charcoal stripped fetal bovine serum (not heat-inactivated), 100 U/mL penicillin, 100 μg/mL streptomycin, and 2 mM the GlutaMax™ reagent (GIBCO, BRL).
(ii) Alkaline Phosphatase Assay Buffer: • I. 0.1 M Tris-HCl, pH 9.8, containing 0.2% the Triton™ reagent X-100 • II. 0.1 M Tris-HCl, pH 9.8 containing 4 mM p-nitrophenyl phosphate (Sigma).
(iii) Cell Culture and Treatment: • Frozen T47D cells were thawed in a 37° C. water bath and diluted to 280,000 cells/mL in culture medium. To each well in a 96-well plate (Falcon, Becton Dickinson Labware), 180 μL of diluted cell suspension was added. Twenty μL of reference or test compounds diluted in the culture medium was then added to each well. When testing for progestin antagonist activity, reference antiprogestins or test compounds were added in the presence of 1 nM progesterone. The cells were incubated at 37° C. in a 5% CO2/humidified atmosphere for 24 hours.
(iv) Alkaline Phosphatase Enzyme Assay: • At the end of treatment, the medium was removed from the plate and 50 μL of assay buffer I was added to each well. The plates were shaken in a titer plate shaker for 15 minutes. Then 150 μL of assay buffer II was added to each well. Optical density measurements were taken at 5 minute intervals for 30 minutes at a test wavelength of 405 nm.
(v) Analysis of Results: • Analysis of dose-response data: For reference and test compounds, a dose response curve is generated for dose (X-axis) vs. the rate of enzyme reaction (slope) (Y-axis). Square root-transformed data are used for analysis of variance and nonlinear dose response curve fitting for both agonist and antagonist modes. Huber weighting is used to downweight the effects of outliers. EC50 or IC50 values are calculated from the retransformed values. JMP software (SAS Institute, Inc.) is used for both one-way analysis of variance and non-linear dose response analyses in both single dose and dose response studies.
(vi) Reference Compounds: • Progesterone and trimegestone are reference progestins and RU486 was the reference antiprogestin. All reference compounds are run in full dose response curves and the EC50 or IC50 values calculated.

[2] = Solubility in dimethylsulfoxide (observation during characterisation); format: physicochemical
Protocol: A 5-L round-bottomed flask equipped with a mechanical stirrer and a reflux condenser was charged with the isolated solid (16.5 g) and acetone (2700 mL) was added in portions via the condenser while the suspension was heated to reflux. The reflux condenser was replaced with a regular one and acetone was distilled off. After distilling 2130 mL of acetone, the formed slurry was cooled to room temperature, stirred overnight, and filtered on a sintered-glass funnel to give a dark-yellow, crystalline, sandy solid. The filtered solid was dried at 40° C. in vacuo to give 12.5 g (76% recrystallization yield; 38% total yield) of 5-(4,4-dimethyl-2-thioxo-1,4-dihydro-2H-3,1-benzoxazin-6-yl)-1-methyl-1H-pyrrole-2-carbothioamide. LC purity: 95.94%; 1.65% NSP-989; rrt 0.88. LC-MS: 331 (M^+); impurity 297 (NSP-989). Mp: particles of various shapes; small particles melted 210-215° C.; next 218-220° C.; final melt 223-226° C. IR (KBr, cm^−1): 3375, 3269, 3165, 2211, 1624, 1610, 1540, 1526, 1466, 1370, 1294, 1261, 1186, 1114, 1086, 959, 880, 822, 779. ^1H NMR (DMSO-d6, ppm): 12.28 (s, 1H), 9.22 (s, 1H, S═CNH2), 8.97 (s, 1H, S═CNH2), 7.41 (d, 1H, J=7.05 Hz), 7.40 (s, 1H), 7.12 (d, 1H, J=8.85 Hz), 6.72 (d, 1H, J=3.9 Hz), 6.23 (d, 1H, J=3.9 Hz), 3.83 (s, 3H), 1.68 (s, 6H).

[3] = system: alkaline phosphatase activity in T47D cells; assay: T47D alkaline phosphatase assay (antiprogestin/antagonist mode, in the presence of 1 nM progesterone); format: cell-based; settings: Homo sapiens, reference antiprogestin, three independent experiments (Exp 1-3), read-out: Estimated IC50
Protocol: 0.1 M Tris-HCl, pH 9.8 containing 4 mM p-nitrophenyl phosphate (Sigma). […] To each well in a 96-well plate (Falcon, Becton Dickinson Labware), 180 μL of diluted cell suspension was added. Twenty μL of reference or test compounds diluted in the culture medium was then added to each well. When testing for progestin antagonist activity, reference antiprogestins or test compounds were added in the presence of 1 nM progesterone. The cells were incubated at 37° C. in a 5% CO2/humidified atmosphere for 24 hours. […] The plates were shaken in a titer plate shaker for 15 minutes. Then 150 μL of assay buffer II was added to each well. […] Square root-transformed data are used for analysis of variance and nonlinear dose response curve fitting for both agonist and antagonist modes. Huber weighting is used to downweight the effects of outliers. EC50 or IC50 values are calculated from the retransformed values.

pEC50 [1]	Solubility in dimethylsulfoxide (DMSO) [2]	pIC50 [3]	Structure (SMILES)	Emax [1] [%]
9.70	sparingly soluble		Cn1c(C(N)=S)ccc1-c1ccc2c(c1)C(C)(C)OC(=S)N2 [Compound 1, 5-(4,4-dimethyl-2-thioxo-1,4-dihydro-2H-3,1-benzoxazin-6-yl)-1-methyl-1H-pyrrole-2-carbothioamide]	60
8.72			Cn1c(C(N)=S)ccc1-c1ccc2c(c1)C(C)(C)OC(=O)N2 [Compound 2, 5-(4,4-dimethyl-2-oxo-1,4-dihydro-2H-3,1-benzoxazin-6-yl)-1-methyl-1H-pyrrole-2-carbothioamide]	72
		9.99 and 9.92	CC#C[C@]1(O)CC[C@H]2[C@@H]3CCC4=CC(=O)CCC4=C3[C@@H](c3ccc(N(C)C)cc3)C[C@@]21C [RU486]	
